Values joined by “and” are separate entries in the source; they are usually repeats but may differ in a detail not shown here. Identical values can stand only once. “Also recorded” adds a separate entry of the source.
Tests used:
spleen lymphocytes [1] = assay: Lymphocyte stimulation assay after in vivo treatment, C57BL/6 mice; settings: for effect on Con-A response (in words) / effect on PHA response (in words) / effect on mitogen response (in words): i.p.; for effect on mitogen response (in words): PHA and Con-A
Description: (§1) The purpose of this assay is to challenge lymphocytes in microcultures with one or more polyclonal mitogens at concentrations that will induce mitogenesis within 72 hours of stimulation.
(§2) In the mouse model, spleens are removed from different strains of mice and the spleen cells are teased free and suspended in RPMI-1640 tissue culture medium at a concentration of usually […]. These cells are dispensed at a concentration of 5.0×10^5 cells per microculture well in a 96 well flat bottom 96 well tissue culture plate. All testing of the compounds of this invention or mitogens are done in replicates of 10. The cells are then treated with PHA, Con-A, specific antigens, or buffer only. If in vitro testing is done, varying concentrations of the compounds of this invention or buffer only are added to the cells as well. After treatment with the mitogens and/or compounds of this invention, the cells are incubated for 72 hours. The response of these cells to mitogens and/or the compounds of this invention is assessed using ^14 C-thymidine labeling on the fourth day at a concentration of 0.01 μCi/well. The labeled cells are harvested using a lymphocyte harvestor and placed onto fibrous paper discs. A scintillation cocktail is added to vials containing the discs and the results are obtained using a LKB-liquid scintillation counter (Model 1216/Rackbeta II). The data is expressed as a ratio of the cpm of the mitogen stimulated group to the control (nonmitogen) treated group=lymphocyte stimulation index (LSI).
(§3) The lymphocyte stimulation assay may be performed directly on spleen cells obtained from various strains of mice not treated with the compounds of this invention or on lymphocytes obtained from human […]. […] Alternatively, the mice may be treated in vivo with the compounds of this invention by intraperitoneal multi-dose schedules, followed by sacrifice and harvesting spleen lymphocytes. These cells are then tested for their response to polyclonal mitogens or specific antigens used to immunize the mice. In this system however, no additional compound is added to the in vitro lymphocyte stimulation assay system.
Two strains of mice, C57BL/6 and BDF1 are treated for seven days with i.p. administration of either 25, 50, 100, 200, or 400 mg/kg of Cpd. 1 or just buffer. This is followed on the eighth day by a lymphocyte stimulation assay.
A comparison is made of the lymphocyte response of C57BL/6 mice treated 4 days with i.p. administration of either 50, 100, 200, 400 or 800 mg/kg of Cpd. 1, 50, 100, 200, 400 or 800 mg/kg of ascorbic acid (AA), or just buffer. This is followed on the fifth day by a lymphocyte stimulation assay.
Two strains of mice, C57BL/6 and BALB/c, are treated 4 days with i.p. administration of either 50, 100, 200, or 400 mg/kg of Cpd. 1, or just buffer. This is followed on the fifth day by a lymphocyte stimulation assay.
C57BL/6 mice were treated with four daily i.p. doses of either 50, 100, 200, or 400 mg/kg of Cpd. 1 or just buffer. On the fifth day a lymphocyte stimulation assay was performed.
Mice of the C57BL/6 strain were tested with i.p. administration of either 100, 200, 400 or 600 mg/kg of Cpd. 1 or just buffer. This was followed by removal of spleens and treatment of lymphocytes therein with mitogens PHA and Con-A.
The compound of Example 2, Cpd. 2, was tested in vivo by using C57BL/6 mice and treating them with […] or just buffer for four consecutive days by the i.p. route. On the fifth day a lymphocyte stimulation assay was performed.

spleen lymphocytes [2] = assay: In vitro lymphocyte stimulation assay, C57BL/6 spleen lymphocytes; assay type: cell-based, mouse
Description: as §1, §2, §3
An in vitro lymphocyte stimulation assay is performed directly on normal spleen lymphocytes removed from five normal C57BL/6 mice, using concentrations of Cpd. […] Following three days of incubation the assay is completed.
An in vitro lymphocyte stimulation assay was performed using spleen lymphocytes from normal C57BL/6 mice. The lymphocytes were treated with either 1, 5, 10, 50 or 100 μg/well of Cpd. 1 or buffer.
Cpd. 2 was tested using normal spleen lymphocytes from C57BL/6 mice. A lymphocyte stimulation assay was conducted using either 1, 5, 10, 50, or 100 μg/well […] or just buffer.
Spleen cells from C57BL/6 mice were treated, in vitro, with the crystallizing reagents, succinic acid and succinimide. Since these compounds are spontaneously released from the molecular complex in solution at a molar ratio of 2 moles of Cpds. 1, 2, or 3 per mole of the crystalline reagent, these reagents were treated in the lymphocyte stimulation assay at proper molar concentrations.
The compound of example 3, Cpd. 3, was used to treat C57BL/6 spleen lymphocytes in vitro. The lymphocytes were treated with either 1, 5, 10, 50, or 100 μg/well of Cpd. 3 or just buffer and then a lymphocyte stimulation assay was performed.

[3] = 100 mg/kg i.p., five day administration
[4] = 200 mg/kg i.p., five day administration
[5] = 400 mg/kg i.p., five day administration
[6] = 600 mg/kg i.p., five day administration

Cc1ccc(C2(O)C(=O)OC3C(O)COC32O)o1.Cc1ccc(C2(O)C(=O)OC3C(O)COC32O)o1.O=C1CCC(=O)O1 (centres unmarked) [Cpd. 1, 2-furylbutyrolactone:succinic anhydride]
Lymphocyte Stimulation Index, PHA (spleen lymphocytes [1]; 50 mg/kg i.p., 4 days): 13.6 and 17.0
Lymphocyte Stimulation Index, Con-A (spleen lymphocytes [1]; 50 mg/kg i.p., 7 days): 26.0
Lymphocyte Stimulation Index, Control (no mitogen) (spleen lymphocytes [1]; 50 mg/kg i.p., 7 days): 1.0
Lymphocyte Stimulation Index, Con-A (spleen lymphocytes [1]; 100 mg/kg i.p., 7 days): 40.0
Lymphocyte Stimulation Index, Control (no mitogen) (spleen lymphocytes [1]; 100 mg/kg i.p., 7 days): 1.3
Lymphocyte Stimulation Index, PHA (spleen lymphocytes [1]; 100 mg/kg i.p., 7 days): 17.7
Lymphocyte Stimulation Index, Con-A (spleen lymphocytes [1]; [3]): 43.9
Lymphocyte Stimulation Index, Control (no mitogen) (spleen lymphocytes [1]; [3]): .80
Lymphocyte Stimulation Index, PHA (spleen lymphocytes [1]; [3]): 51.1
Lymphocyte Stimulation Index, PHA (spleen lymphocytes [1]; 200 mg/kg i.p., 4 days): 42.8 and 25.2 and 23.2
Lymphocyte Stimulation Index, Con-A (spleen lymphocytes [1]; 200 mg/kg i.p., 7 days): 34.0
Lymphocyte Stimulation Index, Control (no mitogen) (spleen lymphocytes [1]; 200 mg/kg i.p., 7 days): 1.0
Lymphocyte Stimulation Index, PHA (spleen lymphocytes [1]; 200 mg/kg i.p., 7 days): 21.3
Lymphocyte Stimulation Index, Con-A (spleen lymphocytes [1]; [4]): 36.6
Lymphocyte Stimulation Index, Control (no mitogen) (spleen lymphocytes [1]; [4]): .62
Lymphocyte Stimulation Index, PHA (spleen lymphocytes [1]; [4]): 48.2
Lymphocyte Stimulation Index, Con-A (spleen lymphocytes [1]; 400 mg/kg i.p., 4 days): 40.0 and 30.9 and 26.4
Lymphocyte Stimulation Index, Con-A (spleen lymphocytes [1]; 400 mg/kg i.p., 7 days): 20.7
Lymphocyte Stimulation Index, Control (no mitogen) (spleen lymphocytes [1]; 400 mg/kg i.p., 7 days): 1.0
Lymphocyte Stimulation Index, PHA (spleen lymphocytes [1]; 400 mg/kg i.p., 7 days): 3.2
Lymphocyte Stimulation Index, Con-A (spleen lymphocytes [1]; [5]): 42.4
Lymphocyte Stimulation Index, Control (no mitogen) (spleen lymphocytes [1]; [5]): .49
Lymphocyte Stimulation Index, PHA (spleen lymphocytes [1]; [5]): 44.9
Lymphocyte Stimulation Index, Con-A (spleen lymphocytes [1]; [6]): 26.5
Lymphocyte Stimulation Index, Control (no mitogen) (spleen lymphocytes [1]; [6]): 1.7
Lymphocyte Stimulation Index, PHA (spleen lymphocytes [1]; [6]): 17.6
evidence of toxicity (spleen lymphocytes [1]; 600 mg/kg, five day administration): no evidence of toxicity
Lymphocyte Stimulation Index, Con-A (spleen lymphocytes [1]; 800 mg/kg i.p., 4 days): .612
Lymphocyte Stimulation Index, Control (no mitogen) (spleen lymphocytes [1]; 800 mg/kg i.p., 4 days): .31
Lymphocyte Stimulation Index, PHA (spleen lymphocytes [1]; 800 mg/kg i.p., 4 days): .408
effect on Con-A response (in words) (spleen lymphocytes [1]; 4 days): doses ranging from 50 to 200 mg/kg have a significant stimulatory effect; also recorded: doses ranging from 400 to 800 mg/kg have a significant anti-proliferative effect
effect on PHA response (in words) (spleen lymphocytes [1]; 4 days): doses of 100 and 200 mg/kg of Cpd. 1 tend to stimulate lymphocyte DNA synthesis; also recorded: Doses ranging from 400 to 800 suppress DNA synthesis of spleen lymphocytes; also recorded: a decrease in the response to PHA at the 400 mg/kg dose when compared to the response at the 200 mg/kg dose
effect on mitogen response (in words) (spleen lymphocytes [1]; 7 days): strong suppression of the PHA response in the C57BL/6 mice; also recorded: a suppression of the Con-A response in C57BL/6 mice when compared to the 200 mg/kg dose; also recorded: at a dose of 200 mg/kg in C57BL/6 mice; also recorded: in the C57BL/6 strain, it is increased at doses of 50, 100 and 200 mg/kg
effect on mitogen response (in words) (spleen lymphocytes [1]; five day administration): Doses ranging from 100 to 400 mg/kg of Cpd. 1 caused significant stimulation of both the Con-A and PHA treated lymphocytes; also recorded: The high dose, 600 mg/kg, caused less stimulation than the 100 to 400 mg/kg doses and gave levels comparable to controls
effect on mitogen response (in words) (spleen lymphocytes [1]; four daily doses): Stimulation of the response to polyclonal mitogens at doses of Cpd. 1 from 50-400 mg/kg with a maximum response achieved between doses of 100-200 mg/kg
Lymphocyte Stimulation Index, Control (no mitogen) (spleen lymphocytes [2]; 5 μg/well): 1.8
Lymphocyte Stimulation Index, Control (no mitogen) (spleen lymphocytes [2]; 50 μg/well): .20
Lymphocyte Stimulation Index, Control (no mitogen) (spleen lymphocytes [2]; 100 μg/well): .20
Lymphocyte Stimulation Index, Control (no mitogen) (spleen lymphocytes [2]; .001 μg/well): 3.8
Lymphocyte Stimulation Index, Control (no mitogen) (spleen lymphocytes [2]; .01 μg/well): 3.2
Lymphocyte Stimulation Index, Control (no mitogen) (spleen lymphocytes [2]; .1 μg/well): 3.2

2-furylbutyrolactone:succinimide [Cpd. 2]
Lymphocyte Stimulation Index, Con-A (spleen lymphocytes [1]; 50 mg/kg i.p., 4 days): 96.1
Lymphocyte Stimulation Index, Control (no mitogen) (spleen lymphocytes [1]; 50 mg/kg i.p., 4 days): .88
Lymphocyte Stimulation Index, PHA (spleen lymphocytes [1]; 50 mg/kg i.p., 4 days): 15.5
Lymphocyte Stimulation Index, Con-A (spleen lymphocytes [1]; 100 mg/kg i.p., 4 days): 105
Lymphocyte Stimulation Index, Control (no mitogen) (spleen lymphocytes [1]; 100 mg/kg i.p., 4 days): 1.5
Lymphocyte Stimulation Index, PHA (spleen lymphocytes [1]; 100 mg/kg i.p., 4 days): 15.4
Lymphocyte Stimulation Index, Con-A (spleen lymphocytes [1]; 200 mg/kg i.p., 4 days): 99.3
Lymphocyte Stimulation Index, Control (no mitogen) (spleen lymphocytes [1]; 200 mg/kg i.p., 4 days): .69
Lymphocyte Stimulation Index, PHA (spleen lymphocytes [1]; 200 mg/kg i.p., 4 days): 11.3
Lymphocyte Stimulation Index, Con-A (spleen lymphocytes [1]; 400 mg/kg i.p., 4 days): 109
Lymphocyte Stimulation Index, Control (no mitogen) (spleen lymphocytes [1]; 400 mg/kg i.p., 4 days): 1.3
Lymphocyte Stimulation Index, PHA (spleen lymphocytes [1]; 400 mg/kg i.p., 4 days): 12.9
Lymphocyte Stimulation Index, Con-A (spleen lymphocytes [1]; 600 mg/kg i.p., 4 days): 94.0
Lymphocyte Stimulation Index, Control (no mitogen) (spleen lymphocytes [1]; 600 mg/kg i.p., 4 days): 1.5
Lymphocyte Stimulation Index, PHA (spleen lymphocytes [1]; 600 mg/kg i.p., 4 days): 15.8
effect on Con-A response (in words) (spleen lymphocytes [1]; 4 days): only marginal stimulation of Con-A mitogenesis
effect on PHA response (in words) (spleen lymphocytes [1]; 4 days): no effect on PHA mitogenesis
Lymphocyte Stimulation Index, Con-A (spleen lymphocytes [2]; 1 μg/well): 147
Lymphocyte Stimulation Index, Control (no mitogen) (spleen lymphocytes [2]; 1 μg/well): .92
Lymphocyte Stimulation Index, PHA (spleen lymphocytes [2]; 1 μg/well): 25.4
Lymphocyte Stimulation Index, Con-A (spleen lymphocytes [2]; 5 μg/well): 148
Lymphocyte Stimulation Index, Control (no mitogen) (spleen lymphocytes [2]; 5 μg/well): 1.2
Lymphocyte Stimulation Index, PHA (spleen lymphocytes [2]; 5 μg/well): 29.8
Lymphocyte Stimulation Index, Con-A (spleen lymphocytes [2]; 10 μg/well): 164
Lymphocyte Stimulation Index, Control (no mitogen) (spleen lymphocytes [2]; 10 μg/well): 1.1
Lymphocyte Stimulation Index, PHA (spleen lymphocytes [2]; 10 μg/well): 38.8
Lymphocyte Stimulation Index, Con-A (spleen lymphocytes [2]; 50 μg/well): 218
Lymphocyte Stimulation Index, Control (no mitogen) (spleen lymphocytes [2]; 50 μg/well): .80
Lymphocyte Stimulation Index, PHA (spleen lymphocytes [2]; 50 μg/well): 45.8
Lymphocyte Stimulation Index, Con-A (spleen lymphocytes [2]; 100 μg/well): 144
Lymphocyte Stimulation Index, Control (no mitogen) (spleen lymphocytes [2]; 100 μg/well): .49
Lymphocyte Stimulation Index, PHA (spleen lymphocytes [2]; 100 μg/well): 3.83
effect on Con-A response (in words) (spleen lymphocytes [2]; in vitro, Con-A): the 200 μg/well dose had a stimulatory effect; also recorded: the 400 μg/well doses had an anti-proliferative effect

Reference: patent US4518611A, “2-Furylbutyrolactone modulation of the immune system in mammals” (priority 1983, dated 1985)
